Consider 29 molecules from patent publication US6410558B1, “Fungicides for the control of take-all disease of plants” (Monsanto Technology LLC, priority 1991, dated 2002).

The subject of this assay is Gaeumannomyces graminis var. tritici (Ggt). As to the kind of experiment: In vitro Assay: mycelial growth of Ggt on minimal media agar plates containing test compound. It is filed as cell-based. The following applies: dark, 19-20° C., 4 to 5 days, diameter of mycelial growth; for In vitro (ppm) 0.1, Percent Inhibition / inhibition at 0.1 ppm: 0.1 ppm in minimal media agar; for In vitro (ppm) 1, Percent Inhibition / inhibition at 1 ppm: 1 ppm in minimal media agar; for In vitro (ppm) 10, Percent Inhibition / inhibition at 10 ppm: 10 ppm in minimal media agar; for inhibition at 0.1 ppm / inhibition at 1 ppm / inhibition at 10 ppm: Gaeumannomyces graminis; for inhibition at 0.1 ppm: read-out: In vitro (ppm) 0.1, Percent Inhibition; for inhibition at 1 ppm: read-out: In vitro (ppm) 1, Percent Inhibition; for inhibition at 10 ppm: read-out: In vitro (ppm) 10, Percent Inhibition. As for the experimental part: The test compounds (0.25 mL of an appropriate stock solution in acetone) are incorporated into 25 mL minimal media agar [(prepared by autoclaving a solution of 17.5 g Czapek Dox broth (Difco), 7.5 g purified agar or Bacto-agar (Difco), and 500 mL distilled/deionized water, and then adding 50 μL of 1 mg/mL thiamine hydrochloride and 50 μL of 1 mg/mL biotin in 5% ethanol] and plates are prepared.
Each plate is inoculated by placing in a triangular shape three 4-mm plugs of Gaeumannomyces graminis var. tritici (Ggt) grown on the minimal media agar described above. The plates are incubated in the dark at 19-20° C. for 4 to 5 days. The growth of the fungus is measured as the diameter of the mycelial growth. The result is expressed as Percent Inhibition, calculated as [1-[(mm growth on treated plate −4)/(mm growth on control plate −4)]]×100.

Regarding “2-Chloro-N-ethyl-6-(9-phenylethenyl)benzamide [Example 116]”, the “In vitro (ppm) 0.1, Percent Inhibition” value is listed as “N (If the calculation resulted in “0” or less, as compared to the untreated control, a “N” is shown to indicate no control.)”; the “In vitro (ppm) 1, Percent Inhibition” value is given as “N (If the calculation resulted in “0” or less, as compared to the untreated control, a “N” is shown to indicate no control.)”; the “In vitro (ppm) 10, Percent Inhibition” value amounted to 33%.
“3-N,N-diethyl-2-(trimethylsilyl)benzamide [Example 15]”: the “In vitro (ppm) 0.1, Percent Inhibition” value was “N (If the calculation resulted in “0” or less, as compared to the untreated control, a “N” is shown to indicate no control.)”; the “In vitro (ppm) 1, Percent Inhibition” value was “N (If the calculation resulted in “0” or less, as compared to the untreated control, a “N” is shown to indicate no control.)”; the “In vitro (ppm) 10, Percent Inhibition” value came out at 44%.
With `CCN(CC)C(=O)c1cccc(F)c1[Si](C)(C)C(C)(C)C` [Example 9, 2-[(1,1-Dimethylethyl)dimethylsilyl]-N,N-diethyl-3-fluorobenzamide], the inhibition at 0.1 ppm was found to be 3%, the inhibition at 1 ppm was below 0% and the inhibition at 10 ppm was 71%.
For the molecule `CCN(CC)C(=O)c1c(C)ccc(F)c1[Si](C)(C)C(C)(C)C` [Example 10, 2-[(1,1-Dimethylethyl)dimethylsilyl]-N,N-diethyl-3-fluoro-6-methylbenzamide], the inhibition at 0.1 ppm is below 0%, the inhibition at 1 ppm is below 0% and the inhibition at 10 ppm worked out at 50%.
On to `Cc1ccc(F)c([Si](C)(C)C)c1C(=O)N(C)C(C)(C)C` [Example 11, N-(1,1-Dimethylethyl)-3-fluoro-N,6-dimethyl-2-(trimethylsilyl)benzamide], for which the inhibition at 0.1 ppm was below 0%, the inhibition at 1 ppm was below 0% and the inhibition at 10 ppm came out at 24%.
For the molecule `CN(C(=O)c1c(Cl)cccc1[Si](C)(C)C)C(C)(C)C` [Example 23, 2-Chloro-N-(1,1-dimethylethyl)-N-methyl-6-(trimethylsilyl)benzamide], the inhibition at 0.1 ppm is below 0%, the inhibition at 1 ppm was below 0% and the inhibition at 10 ppm came to 71%.
As for `CCN(C(=O)c1c(Cl)cccc1[Si](C)(C)C)c1ccccc1` [Example 24, 2-Chloro-N-ethyl-N-phenyl-6-(trimethylsilyl)benzamide], the inhibition at 0.1 ppm is below 0%, the inhibition at 1 ppm was below 0% and the inhibition at 10 ppm was 100%.
Take `C[Si](C)(C)c1cccc(Cl)c1C(=O)NCCCCl` [Example 30, 2-Chloro-N-(3-chloropropyl)-6-(trimethylsilyl)benzamide]: the inhibition at 0.1 ppm is below 0%, the inhibition at 1 ppm was 60% and the inhibition at 10 ppm stood at 80%.
Consider `C[Si](C)(C)c1cccc(Cl)c1C(=O)NCc1ccccc1` [Example 31, 2-Chloro-N-(phenylmethyl)-6-(trimethylsilyl)benzamide], for which the inhibition at 0.1 ppm is below 0%, the inhibition at 1 ppm was found to be 4% and the inhibition at 10 ppm came out at 96%.
For `CCN(CC)C(=O)c1c(I)ccc(F)c1[Si](C)(C)C` [Example 40, N,N-Diethyl-3-fluoro-6-iodo-2-(trimethylsilyl)benzamide], the inhibition at 0.1 ppm is below 0%, the inhibition at 1 ppm is below 0% and the inhibition at 10 ppm is 53%.
As to `CCN(CC)C(=O)c1c(C=O)ccc(F)c1[Si](C)(C)C` [Example 41, N,N-Diethyl-3-fluoro-6-formyl-2-(trimethylsilyl)benzamide], the inhibition at 0.1 ppm worked out at 24%, the inhibition at 1 ppm is 21% and the inhibition at 10 ppm was determined as 52%.
For `CCN(CC)C(=O)c1c(C(=O)OC)ccc(F)c1[Si](C)(C)C` [Example 42, 2-[(Diethylamino)carbonyl]-4-fluoro-3-(trimethylsilyl)benzoic acid, methyl ester], in that order: below 0%, below 0% and 30%.
For the molecule `CCN(CC)C(=O)c1c(C(=O)OC(C)C)ccc(F)c1[Si](C)(C)C` [Example 43, 2-[(Diethylamino)carbonyl]-4-fluoro-3-(trimethylsilyl)benzoic acid, 1-methylethyl ester], the inhibition at 0.1 ppm was below 0%, the inhibition at 1 ppm was below 0% and the inhibition at 10 ppm was found to be 63%.
In the case of `CCc1cccc([Si](C)(C)C)c1C(=O)N(CC)CC` [Example 44, N,N,2-Triethyl-6-(trimethylsilyl)benzamide], the inhibition at 0.1 ppm is below 0%, the inhibition at 1 ppm was below 0% and the inhibition at 10 ppm came out at 39%.
Turning to `CCN(COC)C(=O)c1c(Cl)cccc1[Si](C)(C)C` [Example 46, 2-Chloro-N-ethyl-N-(methoxymethyl)-6-(trimethylsilyl)benzamide], the inhibition at 0.1 ppm worked out at 15%, the inhibition at 1 ppm was found to be 11% and the inhibition at 10 ppm amounted to 44%.
`CCN(C(C)=O)C(=O)c1c(Cl)cccc1[Si](C)(C)C` [Example 47, N-Acetyl-2-chloro-N-ethyl-6-(trimethylsilyl)benzamide]: the inhibition at 0.1 ppm was below 0%, the inhibition at 1 ppm is below 0% and the inhibition at 10 ppm is 70%.
As for `CCN(COC)C(=O)c1ccccc1[Si](C)(C)C` [Example 50, N-Ethyl-N-(methoxymethyl)-2-(trimethylsilyl)benzamide], the inhibition at 0.1 ppm is 3%, the inhibition at 1 ppm worked out at 10% and the inhibition at 10 ppm was 20%.
For `CCN(CC)C(=O)c1ccc(C)c(F)c1[Si](C)(C)C` [Example 57, N,N-Diethyl-3-fluoro-4-methyl-2-(trimethylsilyl)benzamide], in that order: 10%, below 0% and 90%.
In the case of `CCN(CC)C(=O)c1ccc(C)cc1[Si](C)(C)C` [Example 58, N,N-Diethyl-4-methyl-2-(trimethylsilyl)benzamide], the inhibition at 0.1 ppm was 13%, the inhibition at 1 ppm is 6% and the inhibition at 10 ppm is 55%.
`CCN(CC)C(=O)c1c(Cl)cc(C)cc1[Si](C)(C)C` [Example 59, N,N-Diethyl-2-chloro-4-methyl-6-(trimethylsilyl)benzamide]: the inhibition at 0.1 ppm came to 6%, the inhibition at 1 ppm was below 0% and the inhibition at 10 ppm stood at 26%.
On to `CCN(CC)C(=O)c1c(C)cc(C)cc1[Si](C)(C)C` [Example 60, N,N-Diethyl-2,4-dimethyl-6-(trimethylsilyl)benzamide], for which the inhibition at 0.1 ppm was below 0%, the inhibition at 1 ppm is below 0% and the inhibition at 10 ppm worked out at 19%.
Consider `CCN(CC)C(=O)c1cc(C)ccc1[Si](C)(C)C` [Example 63, N,N-Diethyl-5-methyl-2-(trimethylsilyl)benzamide], for which the inhibition at 0.1 ppm is below 0%, the inhibition at 1 ppm came to 40% and the inhibition at 10 ppm turned out to be 69%.
As to `CCN(CC)C(=O)c1cccc(C)c1[Si](C)(C)C` [Example 64, N,N-diethyl-3-methyl-2-(trimethylsilyl)benzamide], the inhibition at 0.1 ppm was 20%, the inhibition at 1 ppm was determined as 14% and the inhibition at 10 ppm came to 31%.
As for `CCNC(=O)c1ccsc1[Si](C)(C)C` [Example 70, N-Ethyl-2-(trimethylsilyl)-3-thiophenecarboxamide], the inhibition at 0.1 ppm was below 0%, the inhibition at 1 ppm was found to be 15% and the inhibition at 10 ppm was 44%.
In the case of `CCNC(=O)c1c(Cl)cccc1-c1ccccc1C` [Example 72, 3-Chloro-N-ethyl-2′-methyl-[1,1′-biphenyl]-2-carboxamide], the inhibition at 0.1 ppm is below 0%, the inhibition at 1 ppm was 59% and the inhibition at 10 ppm worked out at 69%.
For `CCNC(=O)c1c(Cl)cccc1-c1cccc2ccccc12` [Example 73, 2-Chloro-N-ethyl-6-(1-naphthalenyl)benzamide], in that order: 13%, 60% and 83%.
For the molecule `CCN(CC)C(=S)c1ccc(C)c(F)c1[Si](C)(C)C` [Example 75, N,N-Diethyl-3-fluoro-4-methyl-2-(trimethylsilyl)thiobenzamide], the inhibition at 0.1 ppm is 5%, the inhibition at 1 ppm worked out at 26% and the inhibition at 10 ppm was found to be 31%.
As for `CCNC(=S)c1c(Cl)cccc1[Si](C)(C)C` [Example 76, 2-Chloro-N-ethyl-6-(trimethylsilyl)thiobenzamide], the inhibition at 0.1 ppm is below 0%, the inhibition at 1 ppm was determined as 45% and the inhibition at 10 ppm worked out at 79%.
With `CC(C)SC(=O)c1c(Cl)cccc1[Si](C)(C)C` [Example 78, 2-Chloro-6-(trimethylsilyl)-benzenecarbothioic acid, S-(1-methylethyl) ester], the inhibition at 0.1 ppm turned out to be 12%, the inhibition at 1 ppm came out at 12% and the inhibition at 10 ppm stood at 62%.

The term inhibition denotes the relative decrease from the control value, in per cent.
